From US7612076B2, “Piperazinyl-pyridine derivatives” (Hoffman-La Roche Inc., priority 2004, dated 2009)

target: T1, histamine 3 receptor (H3R) (Homo sapiens, UniProt Q9Y5N1); assay: Binding Assay with 3H-(R)α-Methylhistamine (competition binding, membrane of the human HR3-CHO cell line); conditions: competition binding vs 3H(R)α-Methylhistamine (1 nM = Kd), 1 hour room temperature, Ki calculated from IC50 by Cheng-Prusoff
T1 construct: expressed in transfected cells; host or cells: CHO cells (HR3-CHO cell line), membrane preparation
Procedure: Binding Assay with ^3H—(R)α-Methylhistamine
Saturation binding experiments were performed using HR3-CHO membranes prepared as described in Takahashi, K, Tokita, S., Kotani, H. (2003) J. Pharmacol. Exp. Therapeutics 307, 213-218.
An appropriate amount of membrane (60 to 80 μg protein/well) was incubated with increasing concentrations of ^3H(R)α-Methylhistamine di-hydrochloride (0.10 to 10 nM). Non specific binding was determined using a 200 fold excess of cold (R)α-Methylhistamine dihydrobromide (500 nM final concentration). The incubation was carried out at room temperature (in deep-well plates shaking for three hours). The final volume in each well was 250 μl. The incubation was followed by rapid filtration on GF/B filters (pre-soaked with 100 μl of 0.5% PEI in Tris 50 mM shaking at 200 rpm for two hours). The filtration was made using a cell-harvester and the filter plates were then washed five times with ice cold washing buffer containing 0.5 M NaCl. After harvesting, the plates were dried at 55° C. for 60 min, then we added scintillation fluid (Microscint 40, 40 microl in each well) and the amount of radioactivity on the filter was determined in Packard top-counter after shaking the plates for two hours at 200 rpm at room temperature.
Binding Buffer: 50 mM Tris-HCl pH 7.4 and 5 mM MgCl2×6H2O pH 7.4. Washing Buffer: 50 mM Tris-HCl pH 7.4 and 5 mM MgCl2×6H2O and 0.5 M NaCl pH 7.4.
Indirect measurement of affinity of H3R inverse agonists: twelve increasing concentrations (ranging from 10 μM to 0.3 nM) of the selected compounds were always tested in competition binding experiments using membrane of the human HR3-CHO cell line. An appropriate amount of protein, e.g. approximately 500 cpm binding of RAMH at Kd, were incubated for 1 hour at room temperature in 250 μl final volume in 96-well plates in presence of ^3H(R)α-Methylhistamine (1 nM final concentration=Kd). […]
All compounds were tested at a single concentration in duplicates. […] Ki's were calculated from IC50 based on Cheng-Prusoff equation (Cheng, Y, Prusoff, W H (1973) Biochem Pharmacol 22, 3099-3108).

T1 sequence (Q9Y5N1 whole entry): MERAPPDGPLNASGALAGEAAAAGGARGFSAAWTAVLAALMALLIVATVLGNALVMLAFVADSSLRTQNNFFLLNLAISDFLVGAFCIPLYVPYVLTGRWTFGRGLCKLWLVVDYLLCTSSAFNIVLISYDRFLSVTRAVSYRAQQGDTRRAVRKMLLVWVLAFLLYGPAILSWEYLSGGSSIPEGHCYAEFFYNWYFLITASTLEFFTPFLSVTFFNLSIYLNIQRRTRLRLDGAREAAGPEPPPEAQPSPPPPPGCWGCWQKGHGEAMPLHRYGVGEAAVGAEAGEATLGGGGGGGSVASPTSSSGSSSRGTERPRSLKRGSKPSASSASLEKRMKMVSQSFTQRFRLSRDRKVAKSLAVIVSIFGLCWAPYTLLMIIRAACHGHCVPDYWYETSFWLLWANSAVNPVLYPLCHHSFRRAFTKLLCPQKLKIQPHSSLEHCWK

Row | Ki [nM] | SMILES
1 | 8.5 | O=C(Nc1ccnc(N2CCN(C3CCCC3)CC2)c1)C1CCCCC1 [Example 11, cyclohexanecarboxylic acid [2-(4-cyclopentyl-piperazin-1-yl)-pyridin-4-yl]-amide]
2 | 48.6 | O=C(Nc1ccnc(N2CCN(C3CCCC3)CC2)c1)N1CCC(F)CC1 [Example 66, 4-fluoro-piperidine-1-carboxylic acid [2-(4-cyclopentyl-piperazin-1-yl)-pyridin-4-yl]-amide]
3 | 76.7 | O=C(Nc1cc(N2CCN(C3CCCC3)CC2)ccn1)c1cccc(F)c1 [Example 48, N-[4-(4-cyclopentyl-piperazin-1-yl)-pyridin-2-yl]-3-fluoro-benzamide]
